We go through 13 compounds from patent US10221459B2, “Compositions and methods of treating cancer harboring PIKC3A mutations” (Case Western Reserve University, priority 2014, dated 2019).

For data set [1], the system named is ATF4 protein levels in the HCT116 PIK3CA mutant clone. Nature of the data set: ATF4 protein levels after inhibitor exposure (immunoblot). The data set is classed as cell-based. To be noted: Western blot (FIG. 6C). The procedure:
Ubiquitination of endogenous ATF4 (A). Ubiquitination of ectopically expressed Flag-tagged ATF4 and HA-tagged ubiquitin (B).
Cells were lysed in RIPA buffer [10 mM Tris (pH 7.4), 150 mM NaCl, 5 mM EDTA (pH 8.0), 0.1% SDS, 1% Triton-X100, 1 mM DTT, 1 mM PMSF, complete Protease Inhibitor Cocktail tablet (Roche); supplemented with phosphatase inhibitors (1 mM Na3VO4, 50 mM NaF, 1 mM β-glycerophosphate, 20 mM sodium pyrophosphate)]. Lysates were then cleared by centrifugation at 14,000 rpm for 10 min and protein concentration in supernatants was determined by the BCA protein assay kit (Pierce). Equal amounts of total protein were used for immunoblotting. For immunoprecipitation (IP), cells were lysed as mentioned above. Cleaned cell lysate incubated with antibody for one hour, and then protein A and/or protein G for one hour. Protein A/G beads were washed with lysis buffer three times, and then boiled with SDS-loading buffer followed with immunoblotting.
On the technique in general: In western blotting, separated proteins are transferred to a membrane and probed.

The subject of another data set is HCT116 xenograft tumors. Nature of the data set: Xenograft study, HCT116 (parental cells). It counts as in vivo, mice. To be noted: for tumor regression: alone or in combination; for combinational effect with AOA: drug combined with AOA (10 mg/kg), HCT116 xenograft. The text has this: (§1) FIGS. 4(A-D) illustrate plots showing aminooxyacetate (AOA) inhibits xenograft tumor growth of PIK3CA mutant CRCs but not PIK3CA WT CRCs. (A-B) AOA inhibits growth of xenograft formed by PIK3CA mutant clones but not PIK3CA WT clones. (A) Clones derived from HCT116 cells; (B) Clones derived from DLD1. (C) AOA inhibits growth of xenograft tumors formed by four CRC cell lines harboring PIK3CA mutations. […] N=5 mice in each experimental group. Data are presented as mean±SEM.
FIGS. 10(A-B) illustrate plots showing AOA synergizes with 5-FU to inhibit growth of HCT116 xenograft tumors.
FIGS. 12(A-B) illustrate images and a plot showing the combination of CB-839 and 5-FU shrinks HCT116 xenograft tumors.
(§2) Animal experiments were approved by the Case Western Reserve University Animal Care and Use Committee. As described in, 3 million cells were injected subcutaneously into the flanks of 4 to 6-week-old female athymic nude mice. Mice were randomly assigned into treatment groups (5 mice/group). When average tumor volume reached 100 mm3, mice were treated with vehicle control, 5 mg/kg or 10 mg/kg of AOA every day per IP (intraperitoneal) injection. Tumor volumes were measured with an electronic caliper and calculated as length×width^2/2.

Data set [2] relates to HCT116 PIK3CA mutant and WT clones. Nature of the data set: Growth inhibition in tissue culture, HCT116 PIK3CA mutant vs WT clones. It counts as cell-based. As to conditions: for sensitivity to growth inhibition, PIK3CA-/mut vs PIK3CA WT/- cells: HCT116, various doses. The text has this: (§3) FIGS. 9(A-C) illustrate graphs and an immunoblot showing aminooxyacetate (AOA) inhibits PIK3CA mutant tumor growth. (A) IC50 of AOA in HCT116 and DLD1 PIK3CA WT and mutant clones. (B) Body weights of the mice with xenograft established from the indicated CRC cells before and after AOA treatment. N=5 mice in each group. (C) Western blot analyses of GPT2 protein levels in the indicated cell lines.
(§4) To test if PIK3CA mutations render cancer cell sensitive to these inhibitors, we treated PIK3CA-/mut, PIK3CA WT/-HCT116 and DLD1 colon cancer cells with various doses of EGCG and BPTES.

The subject of data set [3] is DLD1 PIK3CA mutant and WT clones. Nature of the data set: Growth inhibition in tissue culture, DLD1 PIK3CA mutant vs WT clones. It counts as cell-based. As to conditions: for sensitivity to growth inhibition, PIK3CA-/mut vs PIK3CA WT/- cells: DLD1, various doses.
Text: as §3, §4

Data set [4] deals with HCT116 PIK3CA mutant clone xenograft. Nature of the data set: Xenograft study, HCT116 PIK3CA mutant clone. It counts as in vivo. As to conditions: HCT116 PIK3CA mutant clone in nude mice; AOA 5 or 10 mg/kg every day IP.
Text: as §1, §2

Data set [5] concerns DLD1 PIK3CA mutant clone xenograft. As to the kind of experiment: Xenograft study, DLD1 PIK3CA mutant clone. The data set is classed as in vivo. As to conditions: DLD1 PIK3CA mutant clone in nude mice; AOA 5 or 10 mg/kg every day IP.
Text: as §1, §2

Data set [6] has as its system HCT116 PIK3CA WT clone xenograft. As to the kind of experiment: Xenograft study, HCT116 PIK3CA WT clone. The data set is classed as in vivo. As to conditions: isogenic HCT116 PIK3CA WT clone in nude mice; AOA every day IP.
Text: as §1, §2

The test system of data set [7] is DLD1 PIK3CA WT clone xenograft. As to the kind of experiment: Xenograft study, DLD1 PIK3CA WT clone. It counts as in vivo. To be noted: isogenic DLD1 PIK3CA WT clone in nude mice; AOA every day IP.
Text: as §1, §2

In another data set the test system is DLD1 xenograft tumors. Nature of the data set: Xenograft study, DLD1 (parental cells). It counts as in vivo, mice. As to conditions: DLD1 parental cells (PIK3CA mutant); AOA every day IP.
Text: as §1, §2

The subject of another data set is RKO xenograft tumors. Nature of the data set: Xenograft study, RKO. To be noted: RKO (PIK3CA mutant); AOA every day IP. The data set is classed as in vivo, mice.
Text: as §1, §2

The subject of a further data set is HT29 xenograft tumors. Nature of the data set: Xenograft study, HT29. It counts as in vivo, mice. To be noted: HT29 (PIK3CA mutant); AOA every day IP.
Text: as §1, §2

A further data set concerns SW480 xenograft tumors. As to the kind of experiment: Xenograft study, SW480. It counts as in vivo, mice. To be noted: SW480 (WT PIK3CA); AOA every day IP.
Text: as §1, §2

The test system of another data set is LOVO xenograft tumors. Nature of the data set: Xenograft study, LOVO. The data set is classed as in vivo, mice. To be noted: LOVO (WT PIK3CA); AOA every day IP.
Text: as §1, §2

Data set [8] in a line: Body weights of xenograft mice before and after AOA treatment. The data set is classed as in vivo. As to conditions: xenograft mice treated with AOA.
Text: as §3, §2

Another data set addresses T1, Recombinant GPT2 (Homo sapiens, UniProt Q8TD30).
T1 sequence (Q8TD30 1-523): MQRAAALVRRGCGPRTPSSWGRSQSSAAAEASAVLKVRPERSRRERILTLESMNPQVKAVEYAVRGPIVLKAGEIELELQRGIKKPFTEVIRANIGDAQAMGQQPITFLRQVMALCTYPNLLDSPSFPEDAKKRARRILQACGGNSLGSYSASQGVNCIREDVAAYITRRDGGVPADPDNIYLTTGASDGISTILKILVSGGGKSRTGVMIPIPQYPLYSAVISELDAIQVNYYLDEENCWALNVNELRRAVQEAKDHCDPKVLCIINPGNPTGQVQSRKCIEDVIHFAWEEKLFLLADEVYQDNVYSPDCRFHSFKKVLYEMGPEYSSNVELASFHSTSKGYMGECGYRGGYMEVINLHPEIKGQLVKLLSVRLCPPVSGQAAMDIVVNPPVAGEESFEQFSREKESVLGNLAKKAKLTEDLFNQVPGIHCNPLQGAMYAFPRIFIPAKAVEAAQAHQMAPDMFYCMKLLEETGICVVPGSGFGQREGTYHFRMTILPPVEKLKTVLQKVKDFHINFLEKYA
Nature of the data set: GPT2 enzymatic assay (colorimetric pyruvate detection). It counts as biochemical. As to conditions: recombinant GPT2 mixed with α-KG and alanine; read-out: IC50 of AOA to GPT2. The procedure: (§5) FIGS. 11(A-C) illustrate plots and graph showing (A) enzyme kinetics of GPT2. Recombinant GPT2 was mixed with α-KG and alanine. The product pyruvate was detected by a colorimetric assay. (B) IC50 of AOA to GPT2. (C) Relative amounts of α-KG. Xenograft tumors were treated with 10 mg/kg of AOA or vehicle. α-KG in a untreated tumor was set as 100%.
(§6) However, AOA is pan-transaminase inhibitor.

The test system of the next data set is GPT activity. Nature of the data set: GPT activity in treated xenograft tumors assayed by amounts of α-KG. The data set is classed as in vivo, mice. To be noted: Mus musculus, AOA 10 mg/kg. The method, then: as §5, §6
The mark [9] stands for this setting: HCT116 (PIK3CA mutant CRC) xenograft.
The mark [10] stands for this setting: single agent, HCT116 (PIK3CA mutant CRC) xenograft.

SMILES strings stand for the structures.

Take `Cn1c(=O)n(-c2ccc(C(C)(C)C#N)cc2)c2c3cc(-c4cnc5ccccc5c4)ccc3ncc21` [DEZ235]: in data set [1], the ATF4 protein levels result is given as “reduced ATF4 protein levels”.

Regarding `O=c1[nH]cc(F)c(=O)[nH]1` [5-FU, 5-fluorouracil], the tumor regression entry in the data set with HCT116 xenograft tumors (setting [9]) is recorded as “neither induced tumor regression”. For the same compound, in the data set with HCT116 xenograft tumors (setting [10]), the xenograft tumor growth entry is “inhibited tumor growth to various extents”.

Consider `O=C(O[C@@H]1Cc2c(O)cc(O)cc2O[C@@H]1c1cc(O)c(O)c(O)c1)c1cc(O)c(O)c(O)c1` [EGCG, Epigallocatechin gallate], for which the “sensitivity to growth inhibition, PIK3CA-/mut vs PIK3CA WT/- cells” value in [2] and in [3] was “more sensitive to growth inhibition” each time.

Consider `CCn1c(-c2nonc2N)nc2c(C#CC(C)(C)O)ncc(OC[C@H]3CCCNC3)c21` [GSK690693], for which, in [1], the ATF4 protein levels entry is recorded as “neither an AKT inhibitor (GSK690693) nor an inhibitor (CHIR-99021) of GSK3β(a known downstream effector of AKT) had any effect on ATF4 protein levels”.

Consider `CNc1nc(-c2ccc3c(N)n[nH]c3c2)cc(N2C[C@@H](C(=O)NC3CCCCC3)CC[C@H]2C)n1` [GSK2334470], for which, in [1], the ATF4 protein levels entry is “reduced ATF4 protein levels”.

In the case of `O=C1[O][Pt]2([NH][C@@H]3CCCC[C@H]3[NH]2)[O]C1=O` [oxaliplatin], the “combinational effect with AOA” value in the data set with HCT116 xenograft tumors is “none of the other drug showed any combinational effect with AOA”.

On to `O=C(Cc1cccc(OC(F)(F)F)c1)Nc1ccc(CCCCc2nnc(NC(=O)Cc3ccccn3)s2)nn1` [CB-839], for which the tumor regression result with HCT116 xenograft tumors (setting [9]) was “neither induced tumor regression”. In addition, the xenograft tumor growth entry with HCT116 xenograft tumors (setting [10]) is given as “inhibited tumor growth to various extents”.

For the compound `Cc1ccc(-c2c(C(=O)CF)n(CCCO)c3ncnc(N)c23)cc1` [FMK], in data set [1], the ATF4 protein levels entry is recorded as “reduced ATF4 protein levels”.

In the case of `NOCC(=O)O` [AOA, aminooxyacetate], the “sensitivity to AOA treatment, PIK3CA mutant clones vs WT clones” value in data set [2] (HCT116 clones) and in [3] (DLD1 clones) was “more sensitive to AOA treatment than the WT clones” in each case. The xenograft tumor growth entry is on record as “significantly inhibited the growth” in [4]; “significantly inhibited the growth” in data set [5]; “had no effect” in data set [6]; “had no effect” in data set [7]; “inhibited xenograft tumor growth” in the data set on HCT116 xenograft tumors (HCT116 parental cells (PIK3CA mutant), AOA every day IP); “inhibited xenograft tumor growth” in the data set with DLD1 xenograft tumors. The xenograft tumor growth entry in the data set with RKO xenograft tumors is “inhibited xenograft tumor growth”; in the data set with HT29 xenograft tumors, “inhibited xenograft tumor growth”; in the data set with SW480 xenograft tumors it was “had no effect on xenograft tumor growth”; in the data set with LOVO xenograft tumors, “had no effect on xenograft tumor growth”. Moreover, in [8], the “weight loss of treated mice” value was “No weight loss was observed”. Moreover, the 50% inhibitory concentration (IC50) (usually the point on the concentration scale where inhibition reaches its midpoint) at Recombinant GPT2 was found to be 980 nM. In the data set with GPT activity, the inhibition (commonly the relative decrease from the control value, in per cent) at 10 mg/kg was roughly 30%.

Consider `O=C(Cc1ccccc1)Nc1nnc(CCSCCc2nnc(NC(=O)Cc3ccccc3)s2)s1` [BPTES], for which the “sensitivity to growth inhibition, PIK3CA-/mut vs PIK3CA WT/- cells” value in data set [2] and in data set [3] was “more sensitive to growth inhibition” in each case.

For `CC(C)CCN1c2nc(Nc3cc(F)c(O)c(F)c3)ncc2N(C)C(=O)C1C` (stereo not shown) [BI-D1870], the ATF4 protein levels result in data set [1] is on record as “reduced ATF4 protein levels”.

In the case of `CNC(=O)c1cc(Oc2ccc(NC(=O)Nc3ccc(Cl)c(C(F)(F)F)c3)c(F)c2)ccn1` [regorafenib], the “combinational effect with AOA” value with HCT116 xenograft tumors is given as “none of the other drug showed any combinational effect with AOA”.

On to `CCc1c2c(nc3ccc(OC(=O)N4CCC(N5CCCCC5)CC4)cc13)-c1cc3c(c(=O)n1C2)COC(=O)[C@]3(O)CC` [irinotecan], for which, in the data set with HCT116 xenograft tumors, the “combinational effect with AOA” value was “none of the other drug showed any combinational effect with AOA”.
